Experimental data as given in patent publication US4892963A, “N-phenyl amide compounds” (Lilly Industries Limited, priority 1986, dated 1990).

What was measured:
[1] = tested on: cyclooxygenase; experiment: cyclooxygenase inhibition test of Harvey and Osborn
From the text: Other members of the series inhibit 5-lipoxygenase product formation as measured in this test, and are thus indicated for the therapeutic treatment of diseases in which leukotrienes are implicated. These include immediate hypersensitivity diseases, allergic reactions of the pulmonary system, for example, in lung disorders such as extrinsic asthma and industrial asthmas and in other inflammatory disorders associated with acute or chronic infectious diseases as allergic skin diseases, ectopic and atopic eczemas, psoriasis, contact hypersensitivity and angioneurotic oedema, bronchitis, cystic fibrosis and rheumatic fever. Furthermore, owing to their inhibition of leukotriene formation, the compounds have potential activity against a wide range of inflammatory diseases, and are also indicated for use in cancer treatment.

[2] = tested on: rat spleen cells; experiment: concanavalin A response of rat spleen cells (tritiated thymidine uptake); type: cell-based; settings: dosage level of 10 micromolar, concanavalin A 3 μg/ml, 2×10^5 cells per well
Protocol: The concanavalin A response of rat spleen cells was used as a primary in vitro assay to determine the activity of the compounds of the invention. Many methods for the determination of concanavalin A response are described in the literature. The method employed was similar to that described by Lacombe P. et al, FEBS 3048 191, 227-230. This method was altered insofar as Hepes was excluded, 2×10^5 cells were used per culture well, and concanavalin A employed at 3 μg/ml. 2-Mercaptoethanol was a requirement (2×10M^-5 ) and 0.1 μCi of tritiated thymidine was added 4 hours before cell harvesting.

Structure (SMILES) | cyclooxygenase inhibiting properties [1] | inhibition at 10 µM [2] [%]
CC(O)=C(C#N)C(=O)Nc1ccc(C(C)(C)C)cc1 [Example 1, 2-Cyano-N-[4-(1,1-dimethylethyl)phenyl]-3-hydroxybut-2-enamide] | little or no cyclooxygenase inhibiting properties | > 50
CC(O)=C(C#N)C(=O)N(C)c1ccc(C(C)(C)C)cc1 [Example 2, 2-Cyano-N-[4-(1,1-dimethylethyl)phenyl]-3-hydroxy-N-methylbut-2-enamide] | little or no cyclooxygenase inhibiting properties | 
Cc1oncc1C(=O)Nc1ccc(C(C)(C)C)cc1 [Example 3, N-[4-(1,1-Dimethylethyl)phenyl]-5-methylisoxazol-4-yl-carboxamide] |  | > 50
CCC(C)(C)c1ccc(NC(=O)C(C#N)=C(C)O)cc1 [Example 4, 2-Cyano-N-[4-(1,1-dimethylpropyl)phenyl]-3-hydroxybut-2-enamide] |  | > 50
